Measured values from article PMC10600239, “Selective MCL-1 inhibitor ABBV-467 is efficacious in tumor models but is associated with cardiac troponin increases in patients” (Communications Medicine, 2023).

Experiment: Phase 1 first-in-human study (NCT04178902): safety
Type: in vivo
Text: This FIH study (NCT04178902) for ABBV-467 was a multicenter, open-label, dose-escalation study enrolling patients aged ≥18 years who had R/R MM, with the option to enroll R/R AML once recommended phase 2 dose (RP2D) was established. The study design was originally planned to consist of 2 parts: dose escalation and dose expansion, including a minimum of 6 patients treated during dose escalation at what was ultimately to be declared the RP2D. Patients must have received 3 or more prior lines of therapy including at least 1 or more immunomodulatory agents, 1 or more proteasome inhibitors, and 1 or more anti-CD38 monoclonal antibodies. Other eligibility criteria included: Eastern Cooperative Oncology Group performance status ≤2, measurable disease as defined by International Myeloma Working Group (IMWG) consensus criteria, an echocardiogram with an ejection fraction ≥50%, and adequate hematologic, hepatic, and renal function. The prespecified primary objectives were to characterize the safety and toxicity profiles, to establish the RP2D, and to determine the pharmacokinetic (PK) profile of ABBV-467 monotherapy. Safety evaluations included, but were not limited to, adverse event (AE) monitoring, physical examinations, vital sign measurements, electrocardiogram (ECG), cardiac enzyme monitoring, and clinical laboratory testing (hematology and chemistry) as a measure of safety and tolerability for the entire study duration. Parameters used to determine PK included maximum observed plasma concentration (Cmax), terminal elimination half-life (t1/2), area under the plasma concentration-time curve (AUC) from time 0 to time of last measurable concentration (AUCt), AUC from time 0 to infinity (AUC0-∞), and clearance using non-compartmental methods. Secondary objectives were preliminary evaluation of the efficacy of ABBV-467 in R/R MM and R/R AML. Preliminary efficacy endpoints were overall response rate (ORR), clinical benefit rate (CBR), and duration of response (DOR) as evaluated per adapted IMWG[36] criteria for MM and per adapted International Working Group (IWG)[37] and European Leukemia Net (ELN)[38] criteria for AML.
ABBV-467 was administered as an IV infusion once weekly, for each 28-day cycle over at least a 30-minute period beginning on day 1 of cycle 1. The first infusion was given at half the target dose level. Dosing increased from patient cohort to patient cohort; the escalation was guided by a Bayesian optimal interval design[39] on the basis of the cumulative number of patients who experienced a dose-limiting toxicity (DLT) at a given ABBV-467 dose level. The DLT observation period was defined as the first treatment cycle (cycle 1). AEs of any grade resulting in discontinuation of study drug or missing any dose as a result of toxicity unexplained by underlying disease will be considered a DLT. Any AE of grade 3 or higher will be considered a DLT, unless toxicity can solely be attributed to the underlying disease, with the following clarifications. A non-hematologic DLT was defined as: grade 3 mucositis, nausea, vomiting, or diarrhea that required total parenteral nutrition, tube feeding, or hospitalization lasting >72 h; any grade 4 non-hematologic laboratory abnormality; and any instance of an AE that met the definition of Hy’s Law.
Blood samples for plasma ABBV-467 concentration analysis were collected on days 1, 2, 3, and 15–17 of cycle 1 as well as on days 1 of cycles for PK analysis. Plasma samples of ABBV-467 were quantified using a validated LC-tandem MS with a lower limit of detection of 3 ng/mL. ABBV-467 PK parameters were calculated using standard non-compartmental approaches with Phoenix, WinNonlin (Version 8.0, Certara). AE severity was graded according to the National Cancer Institute Common Terminology Criteria for Adverse Events v5.0 for up to 30 days after the last dose. Analyses of AEs will include only treatment-emergent AEs. Triplicate ECGs were performed on days 1, 2, 15, and 16 of cycle 1. […]

## Cc1c(Cl)c2c(Cl)c(C)c1-c1c(-c3ccc(F)cc3)sc3ncnc(c13)O[C@@H](C(=O)O)Cc1cc(ccc1OCc1ccnc(-c3ccc(OC[C@H]4COCCO4)cc3)n1)OC[C@@H](CN1CCN(C)CC1)O2 [ABBV-467]
0.32 mg/kg (n = 2)
  Any AE, n (%): 2 (100) n (%)
  TEAE: Anemia: 1 (50) n (%)
  TEAE: Arthralgia: 0 n (%)
  TEAE: Arthritis: 0 n (%)
  TEAE: Diarrhea: 1 (50) n (%)
  TEAE: Febrile neutropenia: 0 n (%)
  TEAE: Gastritis: 0 n (%)
  TEAE: Increased alanine aminotransferase: 0 n (%)
  TEAE: Increased amylase: 0 n (%)
  TEAE: Increased aspartate aminotransferase: 0 n (%)
  TEAE: Increased troponin I: 1 (50) n (%)
  TEAE: Increased troponin T: 0 n (%)
  TEAE: Malaise: 1 (50) n (%)
  TEAE: Nausea: 0 n (%)
  TEAE: Neutropenia: 0 n (%)
  TEAE: Pain in extremity: 0 n (%)
  TEAE: Pelvic pain: 0 n (%)
  TEAE: Vitreous floaters: 0 n (%)
0.53 mg/kg (n = 3)
  Any AE, n (%): 3 (100) n (%)
  TEAE: Anemia: 0 n (%)
  TEAE: Arthralgia: 0 n (%)
  TEAE: Arthritis: 0 n (%)
  TEAE: Diarrhea: 0 n (%)
  TEAE: Febrile neutropenia: 0 n (%)
  TEAE: Gastritis: 0 n (%)
  TEAE: Increased alanine aminotransferase: 1 (33) n (%)
  TEAE: Increased amylase: 1 (33) n (%)
  TEAE: Increased aspartate aminotransferase: 2 (67) n (%)
  TEAE: Increased troponin I: 1 (33) n (%)
  TEAE: Increased troponin T: 1 (33) n (%)
  TEAE: Malaise: 0 n (%)
  TEAE: Nausea: 0 n (%)
  TEAE: Neutropenia: 0 n (%)
  TEAE: Pain in extremity: 0 n (%)
  TEAE: Pelvic pain: 0 n (%)
  TEAE: Vitreous floaters: 0 n (%)
1 patient, grade 3 treatment-related troponin I elevation leading to discontinuation
  dose-limiting toxicity: classified as a DLT
N = 8
  patients with grade 3 TEAEs: 3 patients
  patients with treatment-related AEs: 63%
Total (N = 8)
  Any AE, n (%): 7 (88) n (%)
  TEAE: Anemia: 1 (13) n (%)
  TEAE: Arthralgia: 1 (13) n (%)
  TEAE: Arthritis: 1 (13) n (%)
  TEAE: Diarrhea: 2 (25) n (%)
  TEAE: Febrile neutropenia: 1 (13) n (%)
  TEAE: Gastritis: 1 (13) n (%)
  TEAE: Increased alanine aminotransferase: 1 (13) n (%)
  TEAE: Increased amylase: 1 (13) n (%)
  TEAE: Increased aspartate aminotransferase: 2 (25) n (%)
  TEAE: Increased troponin I: 2 (25) n (%)
  TEAE: Increased troponin T: 2 (25) n (%)
  TEAE: Malaise: 1 (13) n (%)
  TEAE: Nausea: 2 (25) n (%)
  TEAE: Neutropenia: 1 (13) n (%)
  TEAE: Pain in extremity: 1 (13) n (%)
  TEAE: Pelvic pain: 1 (13) n (%)
  TEAE: Vitreous floaters: 1 (13) n (%)
Any dose cohort
  cardiac disorders: No cardiac disorders of any grade
  grade 5 toxicities: no grade 5 toxicities
